# Laboratory results reported in ChEMBL document CHEMBL4507305, “Data for DCP probe TP-024” (2021).
# What was measured:
# [1] = test system: Phosphatidylinositol 4,5-bisphosphate 3-kinase catalytic subunit alpha isoform (Homo sapiens), P42336 [I800L]; conditions: Compound concentration 1000.0 nM
# [2] = test system: Mast/stem cell growth factor receptor Kit (Homo sapiens), P10721 [L576P]; conditions: Compound concentration 1000.0 nM
# [3] = molecular target: Ribosomal protein S6 kinase alpha-2 (Homo sapiens) (UniProt Q15349); conditions: Compound concentration 1000.0 nM
# Ribosomal protein S6 kinase alpha-2 (Homo sapiens), sequence (Q15349 whole entry): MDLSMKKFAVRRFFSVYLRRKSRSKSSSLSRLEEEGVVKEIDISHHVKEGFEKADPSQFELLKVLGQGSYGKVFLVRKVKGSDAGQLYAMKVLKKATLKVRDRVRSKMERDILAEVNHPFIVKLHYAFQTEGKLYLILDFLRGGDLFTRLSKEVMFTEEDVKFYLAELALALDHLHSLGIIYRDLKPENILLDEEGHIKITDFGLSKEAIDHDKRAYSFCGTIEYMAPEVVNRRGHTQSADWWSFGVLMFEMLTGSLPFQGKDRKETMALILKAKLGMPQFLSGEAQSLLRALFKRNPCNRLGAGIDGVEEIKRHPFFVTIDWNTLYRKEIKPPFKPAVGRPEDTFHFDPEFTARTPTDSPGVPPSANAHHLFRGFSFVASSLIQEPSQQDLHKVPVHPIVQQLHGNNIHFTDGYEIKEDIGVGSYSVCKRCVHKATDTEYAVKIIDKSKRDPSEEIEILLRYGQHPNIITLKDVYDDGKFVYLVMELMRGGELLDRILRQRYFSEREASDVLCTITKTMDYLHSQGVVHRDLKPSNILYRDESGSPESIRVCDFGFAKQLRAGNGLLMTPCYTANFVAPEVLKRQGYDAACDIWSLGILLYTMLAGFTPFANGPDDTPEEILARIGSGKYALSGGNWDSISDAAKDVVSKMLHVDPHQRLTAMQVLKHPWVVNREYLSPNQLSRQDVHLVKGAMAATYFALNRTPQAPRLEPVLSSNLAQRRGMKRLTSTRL
# [4] = molecular target: Serine/threonine-protein kinase haspin (Homo sapiens) (UniProt Q8TF76); conditions: Compound concentration 1000.0 nM
# [5] = molecular target: Sigma non-opioid intracellular receptor 1 (Homo sapiens) (UniProt Q99720); conditions: Compound concentration 10.0 uM
# [6] = molecular target: Mitogen-activated protein kinase kinase kinase 20 (Homo sapiens) (UniProt Q9NYL2); conditions: Compound concentration 1000.0 nM
# [7] = molecular target: Ribosomal protein S6 kinase alpha-6 (Homo sapiens) (UniProt Q9UK32); conditions: Compound concentration 1000.0 nM
# Ribosomal protein S6 kinase alpha-6 (Homo sapiens), sequence (Q9UK32 whole entry): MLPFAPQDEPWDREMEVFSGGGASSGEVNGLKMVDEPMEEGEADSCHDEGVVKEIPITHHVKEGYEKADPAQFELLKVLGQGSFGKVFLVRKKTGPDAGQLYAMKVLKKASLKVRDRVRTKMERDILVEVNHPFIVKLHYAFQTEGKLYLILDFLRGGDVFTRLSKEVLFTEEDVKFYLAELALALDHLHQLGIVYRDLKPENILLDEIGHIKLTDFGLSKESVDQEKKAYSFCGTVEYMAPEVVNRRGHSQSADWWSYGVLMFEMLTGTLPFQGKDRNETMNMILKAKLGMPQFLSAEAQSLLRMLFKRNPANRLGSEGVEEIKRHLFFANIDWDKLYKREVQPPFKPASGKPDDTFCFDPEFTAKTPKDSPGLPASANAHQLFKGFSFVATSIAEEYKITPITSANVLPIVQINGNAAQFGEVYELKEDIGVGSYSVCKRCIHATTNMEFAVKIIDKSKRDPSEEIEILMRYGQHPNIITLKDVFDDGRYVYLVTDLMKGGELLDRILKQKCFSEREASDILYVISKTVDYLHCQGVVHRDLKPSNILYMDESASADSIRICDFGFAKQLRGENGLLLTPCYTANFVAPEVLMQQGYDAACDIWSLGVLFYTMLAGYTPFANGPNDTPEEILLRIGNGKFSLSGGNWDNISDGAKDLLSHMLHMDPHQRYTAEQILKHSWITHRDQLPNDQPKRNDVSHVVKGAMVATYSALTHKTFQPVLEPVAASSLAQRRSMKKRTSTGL
# [8] = molecular target: Tyrosine-protein kinase TXK (Homo sapiens) (UniProt P42681); conditions: Compound concentration 1000.0 nM
# [9] = molecular target: D(2) dopamine receptor (Homo sapiens) (UniProt P14416); conditions: Compound concentration 10.0 uM
# [10] = molecular target: Cyclin-dependent kinase 9 (Homo sapiens) (UniProt P50750); conditions: Compound concentration 1000.0 nM
# [11] = molecular target: Serine/threonine-protein kinase PLK3 (Homo sapiens) (UniProt Q9H4B4); conditions: Compound concentration 1000.0 nM
# Serine/threonine-protein kinase PLK3 (Homo sapiens), sequence (Q9H4B4 whole entry, looked up): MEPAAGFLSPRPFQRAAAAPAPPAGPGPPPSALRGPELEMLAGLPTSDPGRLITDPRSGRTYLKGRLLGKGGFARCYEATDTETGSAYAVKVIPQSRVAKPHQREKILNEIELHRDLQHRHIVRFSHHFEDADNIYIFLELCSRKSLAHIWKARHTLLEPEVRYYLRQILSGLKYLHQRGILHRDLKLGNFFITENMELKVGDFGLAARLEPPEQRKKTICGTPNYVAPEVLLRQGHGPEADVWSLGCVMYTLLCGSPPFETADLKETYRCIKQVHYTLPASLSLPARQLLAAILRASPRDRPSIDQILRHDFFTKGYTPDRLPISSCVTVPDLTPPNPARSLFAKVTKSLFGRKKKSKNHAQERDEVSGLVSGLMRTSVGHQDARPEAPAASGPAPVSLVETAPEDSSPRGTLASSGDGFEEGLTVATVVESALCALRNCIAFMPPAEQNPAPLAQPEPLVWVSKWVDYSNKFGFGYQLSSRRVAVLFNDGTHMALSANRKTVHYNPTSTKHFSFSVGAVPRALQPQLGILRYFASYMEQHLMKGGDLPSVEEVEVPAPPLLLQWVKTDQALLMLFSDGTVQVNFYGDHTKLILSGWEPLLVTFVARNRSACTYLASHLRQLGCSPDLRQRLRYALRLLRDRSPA
# [12] = molecular target: Myosin light chain kinase family member 4 (Homo sapiens) (UniProt Q86YV6); conditions: Compound concentration 1000.0 nM
# [13] = molecular target: Dual specificity mitogen-activated protein kinase kinase 2 (Homo sapiens) (UniProt P36507); conditions: Compound concentration 1000.0 nM
# [14] = molecular target: Serine/threonine-protein kinase LATS1 (Homo sapiens) (UniProt O95835); conditions: Compound concentration 1000.0 nM
# [15] = molecular target: Serine/threonine-protein kinase mTOR (Homo sapiens) (UniProt P42345); conditions: Compound concentration 1000.0 nM
# [16] = molecular target: Serine/threonine-protein kinase Nek6 (Homo sapiens) (UniProt Q9HC98); conditions: Compound concentration 1000.0 nM
# [17] = molecular target: Cyclin-dependent kinase 14 (Homo sapiens) (UniProt O94921); conditions: Compound concentration 1000.0 nM
# [18] = molecular target: Tyrosine-protein kinase CSK (Homo sapiens) (UniProt P41240); conditions: Compound concentration 1000.0 nM
# [19] = molecular target: Mitogen-activated protein kinase 12 (Homo sapiens) (UniProt P53778); conditions: Compound concentration 1000.0 nM
# Mitogen-activated protein kinase 12 (Homo sapiens), sequence (P53778 whole entry): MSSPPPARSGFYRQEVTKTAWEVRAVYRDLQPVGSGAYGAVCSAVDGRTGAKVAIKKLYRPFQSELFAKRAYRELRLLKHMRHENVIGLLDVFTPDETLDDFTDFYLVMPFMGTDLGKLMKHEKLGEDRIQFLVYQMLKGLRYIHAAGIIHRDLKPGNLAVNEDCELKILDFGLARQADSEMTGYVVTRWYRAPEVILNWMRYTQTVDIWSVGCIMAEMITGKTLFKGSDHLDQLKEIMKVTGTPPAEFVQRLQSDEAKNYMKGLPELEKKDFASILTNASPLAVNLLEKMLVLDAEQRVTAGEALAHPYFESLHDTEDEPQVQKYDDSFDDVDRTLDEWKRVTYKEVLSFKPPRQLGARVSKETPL
# [20] = molecular target: Death-associated protein kinase 2 (Homo sapiens) (UniProt Q9UIK4); conditions: Compound concentration 1000.0 nM
# [21] = test system: Hepatocyte growth factor receptor (Homo sapiens), P08581 [Y1235D]; conditions: Compound concentration 1000.0 nM
# [22] = test system: Phosphatidylinositol 4,5-bisphosphate 3-kinase catalytic subunit alpha isoform (Homo sapiens), P42336 [M1043I]; conditions: Compound concentration 1000.0 nM
# [23] = molecular target: Activated CDC42 kinase 1 (Homo sapiens) (UniProt Q07912); conditions: Compound concentration 1000.0 nM
# [24] = molecular target: 5-hydroxytryptamine receptor 1D (Homo sapiens) (UniProt P28221); conditions: Compound concentration 10.0 uM
# [25] = molecular target: Fibroblast growth factor receptor 3 (Homo sapiens) (UniProt P22607); conditions: Compound concentration 1000.0 nM
# [26] = molecular target: Serine/threonine-protein kinase PAK 6 (Homo sapiens) (UniProt Q9NQU5); conditions: Compound concentration 1000.0 nM
# [27] = molecular target: Serine/threonine-protein kinase MARK1 (Homo sapiens) (UniProt Q9P0L2); conditions: Compound concentration 1000.0 nM
# [28] = molecular target: Protein kinase C delta type (Homo sapiens) (UniProt Q05655); conditions: Compound concentration 1000.0 nM
# [29] = molecular target: Serine/threonine-protein kinase Sgk2 (Homo sapiens) (UniProt Q9HBY8); conditions: Compound concentration 1000.0 nM
# [30] = molecular target: Phosphatidylinositol 3-kinase catalytic subunit type 3 (Homo sapiens) (UniProt Q8NEB9); conditions: Compound concentration 1000.0 nM
# [31] = molecular target: Serine/threonine-protein kinase WNK1 (Homo sapiens) (UniProt Q9H4A3); conditions: Compound concentration 1000.0 nM
# [32] = molecular target: Angiopoietin-1 receptor (Homo sapiens) (UniProt Q02763); conditions: Compound concentration 1000.0 nM
# Angiopoietin-1 receptor (Homo sapiens), sequence (Q02763 whole entry): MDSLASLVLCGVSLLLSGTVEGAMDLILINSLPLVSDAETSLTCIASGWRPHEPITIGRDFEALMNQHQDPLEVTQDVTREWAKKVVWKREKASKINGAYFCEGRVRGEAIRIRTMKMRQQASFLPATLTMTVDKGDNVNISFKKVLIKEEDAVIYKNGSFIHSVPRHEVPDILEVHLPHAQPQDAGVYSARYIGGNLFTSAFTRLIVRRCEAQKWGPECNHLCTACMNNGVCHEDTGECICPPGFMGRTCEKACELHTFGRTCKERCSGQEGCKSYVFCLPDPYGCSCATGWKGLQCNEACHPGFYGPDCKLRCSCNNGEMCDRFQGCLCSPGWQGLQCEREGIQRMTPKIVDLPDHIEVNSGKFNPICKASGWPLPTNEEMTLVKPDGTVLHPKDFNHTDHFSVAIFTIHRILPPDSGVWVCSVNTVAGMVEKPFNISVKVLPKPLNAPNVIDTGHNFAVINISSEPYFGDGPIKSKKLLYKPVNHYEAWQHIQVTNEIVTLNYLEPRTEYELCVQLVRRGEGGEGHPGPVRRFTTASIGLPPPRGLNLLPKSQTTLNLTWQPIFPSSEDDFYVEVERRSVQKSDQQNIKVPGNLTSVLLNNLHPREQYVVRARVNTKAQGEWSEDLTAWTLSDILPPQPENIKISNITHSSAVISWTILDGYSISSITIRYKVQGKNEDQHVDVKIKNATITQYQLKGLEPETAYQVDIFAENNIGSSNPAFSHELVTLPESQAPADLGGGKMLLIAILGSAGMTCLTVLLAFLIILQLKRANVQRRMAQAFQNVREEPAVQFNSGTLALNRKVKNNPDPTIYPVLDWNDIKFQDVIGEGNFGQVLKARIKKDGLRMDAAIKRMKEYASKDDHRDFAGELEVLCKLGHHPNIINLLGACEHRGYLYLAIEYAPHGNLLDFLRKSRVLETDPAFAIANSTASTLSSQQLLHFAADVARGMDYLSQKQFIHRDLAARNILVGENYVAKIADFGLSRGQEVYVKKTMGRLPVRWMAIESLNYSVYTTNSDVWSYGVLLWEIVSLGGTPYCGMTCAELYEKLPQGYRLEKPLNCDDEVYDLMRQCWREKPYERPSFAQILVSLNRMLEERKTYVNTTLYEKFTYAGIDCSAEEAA
# [33] = molecular target: Tyrosine-protein kinase receptor UFO (Homo sapiens) (UniProt P30530); conditions: Compound concentration 1000.0 nM
# [34] = molecular target: Tyrosine-protein kinase Fer (Homo sapiens) (UniProt P16591); conditions: Compound concentration 1000.0 nM
# Tyrosine-protein kinase Fer (Homo sapiens), sequence (P16591 whole entry, looked up): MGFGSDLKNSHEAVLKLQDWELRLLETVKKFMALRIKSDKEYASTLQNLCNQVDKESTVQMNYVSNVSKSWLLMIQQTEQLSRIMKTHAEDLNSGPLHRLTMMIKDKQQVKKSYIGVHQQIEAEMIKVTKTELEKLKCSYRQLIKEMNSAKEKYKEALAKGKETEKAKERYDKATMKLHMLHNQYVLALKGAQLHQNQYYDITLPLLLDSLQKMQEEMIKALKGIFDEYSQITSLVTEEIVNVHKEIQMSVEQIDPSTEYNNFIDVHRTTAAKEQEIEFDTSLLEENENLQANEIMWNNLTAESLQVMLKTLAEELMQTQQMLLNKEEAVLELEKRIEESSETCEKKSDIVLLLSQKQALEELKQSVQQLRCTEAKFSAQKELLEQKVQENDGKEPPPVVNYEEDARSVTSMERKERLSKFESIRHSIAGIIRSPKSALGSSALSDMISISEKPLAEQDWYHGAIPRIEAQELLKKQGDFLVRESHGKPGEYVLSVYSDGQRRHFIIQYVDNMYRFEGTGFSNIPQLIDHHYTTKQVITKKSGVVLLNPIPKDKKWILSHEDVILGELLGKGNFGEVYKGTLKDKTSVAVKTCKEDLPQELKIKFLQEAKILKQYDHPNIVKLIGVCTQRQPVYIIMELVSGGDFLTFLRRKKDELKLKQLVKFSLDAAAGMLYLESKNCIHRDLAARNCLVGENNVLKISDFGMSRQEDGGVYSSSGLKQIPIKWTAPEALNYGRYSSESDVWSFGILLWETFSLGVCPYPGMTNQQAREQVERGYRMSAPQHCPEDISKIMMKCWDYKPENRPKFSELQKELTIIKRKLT
# [35] = molecular target: Insulin receptor (Homo sapiens) (UniProt P06213); conditions: Compound concentration 1000.0 nM
# [36] = test system: Tyrosine-protein kinase ABL1 (Homo sapiens), P00519 [F317L]; conditions: Compound concentration 1000.0 nM
# [37] = molecular target: Casein kinase I isoform alpha-like (Homo sapiens) (UniProt Q8N752); conditions: Compound concentration 1000.0 nM
# [38] = molecular target: Bone morphogenetic protein receptor type-2 (Homo sapiens) (UniProt Q13873); conditions: Compound concentration 1000.0 nM
# [39] = molecular target: Homeodomain-interacting protein kinase 2 (Homo sapiens) (UniProt Q9H2X6); conditions: Compound concentration 1000.0 nM
# [40] = molecular target: Serine/threonine-protein kinase pim-2 (Homo sapiens) (UniProt Q9P1W9); conditions: Compound concentration 1000.0 nM
# [41] = molecular target: Mitogen-activated protein kinase kinase kinase 5 (Homo sapiens) (UniProt Q99683); conditions: Compound concentration 1000.0 nM
# [42] = molecular target: Aurora kinase A (Homo sapiens) (UniProt O14965); conditions: Compound concentration 1000.0 nM
# [43] = molecular target: Mitogen-activated protein kinase kinase kinase 19 (Homo sapiens) (UniProt Q56UN5); conditions: Compound concentration 1000.0 nM
# [44] = molecular target: Dual specificity mitogen-activated protein kinase kinase 1 (Homo sapiens) (UniProt Q02750); conditions: Compound concentration 1000.0 nM
# Dual specificity mitogen-activated protein kinase kinase 1 (Homo sapiens), sequence (Q02750 whole entry): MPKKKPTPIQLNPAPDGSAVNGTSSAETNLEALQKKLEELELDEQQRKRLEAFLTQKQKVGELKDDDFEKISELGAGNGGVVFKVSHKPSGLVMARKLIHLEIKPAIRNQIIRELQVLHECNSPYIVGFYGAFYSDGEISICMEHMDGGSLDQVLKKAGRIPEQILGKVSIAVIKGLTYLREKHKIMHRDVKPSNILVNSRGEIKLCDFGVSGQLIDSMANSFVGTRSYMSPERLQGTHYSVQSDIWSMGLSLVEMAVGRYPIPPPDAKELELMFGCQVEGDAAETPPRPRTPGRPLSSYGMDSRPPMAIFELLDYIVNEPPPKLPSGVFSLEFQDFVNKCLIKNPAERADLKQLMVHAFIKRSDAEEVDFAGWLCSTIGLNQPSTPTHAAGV
# [45] = molecular target: Focal adhesion kinase 1 (Homo sapiens) (UniProt Q05397); conditions: Compound concentration 1000.0 nM
smiles,measurement,setting,value
Cc1cc(-n2nc(Cc3cc(F)cc(C(F)(F)F)c3)nc2C)ccc1C(N)=O [TP-024],residual activity,[1],70%
same,residual activity,[2],52%
same,residual activity,[3],100%
same,residual activity,[4],100%
same,inhibition,[5],5.85%
same,residual activity,[6],99%
same,residual activity,[7],100%
same,residual activity,[8],84%
same,inhibition,[9],0.68%
same,residual activity,[10],100%
same,residual activity,[11],100%
same,residual activity,[12],100%
same,residual activity,[13],100%
same,residual activity,[14],100%
same,residual activity,[15],78%
same,residual activity,[16],95%
same,residual activity,[17],100%
same,residual activity,[18],97%
same,residual activity,[19],100%
same,residual activity,[20],95%
same,residual activity,[21],90%
same,residual activity,[22],95%
same,residual activity,[23],100%
same,inhibition,[24],12.5%
same,residual activity,[25],100%
same,residual activity,[26],100%
same,residual activity,[27],100%
same,residual activity,[28],88%
same,residual activity,[29],100%
same,residual activity,[30],100%
same,residual activity,[31],100%
same,residual activity,[32],92%
same,residual activity,[33],99%
same,residual activity,[34],79%
same,residual activity,[35],99%
same,residual activity,[36],100%
same,residual activity,[37],100%
same,residual activity,[38],100%
same,residual activity,[39],100%
same,residual activity,[40],83%
same,residual activity,[41],100%
same,residual activity,[42],99%
same,residual activity,[43],98%
same,residual activity,[44],100%
same,residual activity,[45],100%
Cc1nc(Cc2cccc(C(F)(F)F)c2)sc1-c1ccc(C(N)=O)nc1 [TP-024n],residual activity,[1],56%
same,residual activity,[2],89%
same,residual activity,[3],95%
same,residual activity,[4],100%
same,inhibition,[5],11.7%
same,residual activity,[6],73%
same,residual activity,[7],100%
same,residual activity,[8],70%
same,inhibition,[9],-5.26%
same,residual activity,[10],100%
same,residual activity,[11],94%
same,residual activity,[12],91%
same,residual activity,[13],98%
same,residual activity,[14],100%
same,residual activity,[15],87%
same,residual activity,[16],90%
same,residual activity,[17],100%
same,residual activity,[18],88%
same,residual activity,[19],100%
same,residual activity,[20],89%
same,residual activity,[21],91%
same,residual activity,[22],15%
same,residual activity,[23],100%
same,inhibition,[24],8.49%
same,residual activity,[25],100%
same,residual activity,[26],92%
same,residual activity,[27],90%
same,residual activity,[28],79%
same,residual activity,[29],95%
same,residual activity,[30],100%
same,residual activity,[31],100%
same,residual activity,[32],80%
same,residual activity,[33],100%
same,residual activity,[34],100%
same,residual activity,[35],95%
same,residual activity,[36],93%
same,residual activity,[37],100%
same,residual activity,[38],100%
same,residual activity,[39],100%
same,residual activity,[40],64%
same,residual activity,[41],100%
same,residual activity,[42],100%
same,residual activity,[43],100%
same,residual activity,[44],100%
same,residual activity,[45],95%
